Measurements: ChEMBL document CHEMBL3727356, “Therapeutic compounds and compositions” (2014)

How the values were obtained:
Pyruvate kinase PKLR [1] = molecular target: Pyruvate kinase PKLR (Homo sapiens, UniProt P30613, R532W); experiment: Activation of PKR R532W mutant (unknown origin) incubated for 60 mins in presence of ADP, PEP and NADH by Spectraax microplate reader based assay
Pyruvate kinase PKLR [2] = molecular target: T1, Pyruvate kinase PKLR (Homo sapiens, UniProt P30613); experiment: Activation of wild type PKR (unknown origin) incubated for 60 mins in presence of ADP, PEP and NADH by Spectraax microplate reader based assay
T1 sequence (P30613 whole entry): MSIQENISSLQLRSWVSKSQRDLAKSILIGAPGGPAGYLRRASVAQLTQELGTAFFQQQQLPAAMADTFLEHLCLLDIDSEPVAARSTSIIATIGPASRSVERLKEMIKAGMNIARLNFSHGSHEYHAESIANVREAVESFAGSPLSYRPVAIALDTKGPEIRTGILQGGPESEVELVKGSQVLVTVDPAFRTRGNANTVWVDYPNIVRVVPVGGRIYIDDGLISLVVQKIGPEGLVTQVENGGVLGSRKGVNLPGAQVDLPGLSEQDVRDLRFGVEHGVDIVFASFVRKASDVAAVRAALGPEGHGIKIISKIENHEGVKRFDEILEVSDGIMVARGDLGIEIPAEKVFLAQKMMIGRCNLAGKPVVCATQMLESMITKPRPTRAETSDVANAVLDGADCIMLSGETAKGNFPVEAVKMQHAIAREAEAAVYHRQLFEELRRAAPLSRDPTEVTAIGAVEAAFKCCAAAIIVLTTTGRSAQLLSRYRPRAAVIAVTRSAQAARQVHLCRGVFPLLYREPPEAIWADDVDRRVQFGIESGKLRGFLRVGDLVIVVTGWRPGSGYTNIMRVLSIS

Pyruvate kinase PKLR [3] = molecular target: T1, Pyruvate kinase PKLR; experiment: Activation of wild type PKR (unknown origin) by cell based assay

Chain of Pyruvate kinase PKLR (Homo sapiens, UniProt P30613, R532W) (P30613 whole entry R532W): as the sequence (P30613 whole entry) above, with R532W counted along it

| AC50 (Pyruvate kinase PKLR [1]) [nM] | AC50 (Pyruvate kinase PKLR [2]) [nM] | AC50 (Pyruvate kinase PKLR [3]) [nM] | SMILES |
| --- | --- | --- | --- |
| < 100 | < 100 |  | O=C(c1ccc(NS(=O)(=O)c2cccc3cccnc23)cc1)N1CCC(O)(Cc2cccnc2)CC1 |
| < 100 | < 100 |  | CC(F)(F)CCC1(O)CCN(C(=O)c2ccc(NS(=O)(=O)c3cccc4scnc34)cc2OC(F)F)CC1 |
| < 100 | < 100 |  | C=C(C)CC1(O)CCN(C(=O)c2ccc(NS(=O)(=O)c3cccc4scnc34)cc2)CC1 |
| < 100 |  | < 100 | CC(C)(F)CC1(O)CCN(C(=O)c2ccc(NS(=O)(=O)c3cccc4scnc34)cc2)CC1 |
| < 100 |  | < 100 | Cn1cc(C2(O)CCN(C(=O)c3ccc(NS(=O)(=O)c4cccc5scnc45)cc3)CC2)cn1 |
| < 100 | < 100 |  | COc1ncccc1C1(O)CCN(C(=O)c2ccc(NS(=O)(=O)c3cccc4cccnc34)cc2)CC1 |
| < 100 | < 100 |  | O=C(c1ccc(NS(=O)(=O)c2cccc3scnc23)cc1)N1CCC(O)(c2ccccc2C(F)F)CC1 |
| < 100 |  | < 100 | O=C(c1ccc(NS(=O)(=O)c2cccc3cccnc23)cc1)N1CCC(O)(c2ccccc2O)CC1 |
|  | < 100 |  | O=C(c1ccc(NS(=O)(=O)c2cccc3cccnc23)cc1)N1CCC(O)(c2cccnc2F)CC1 |
| < 100 | < 100 |  | O=C(c1ccc(NS(=O)(=O)c2cc(F)cc3scnc23)cc1)N1CCC(O)(c2ccccc2Cl)CC1 |
| < 100 | < 100 |  | COc1cc(NS(=O)(=O)c2cccc3cccnc23)ccc1C(=O)N1CCC(O)(c2ccccc2Cl)CC1 |
|  | < 100 | < 100 | CC(C)CC1(O)CCN(C(=O)c2ccc(NS(=O)(=O)c3cccc(O)c3N)cc2)CC1 |
|  | < 100 | < 100 | CC(F)(F)CCC1(O)CCN(C(=O)c2ccc(NS(=O)(=O)c3cccc4nccnc34)cc2)CC1 |
| < 100 | < 100 |  | Cc1n[nH]c(C)c1CC1(O)CCN(C(=O)c2ccc(NS(=O)(=O)c3cccc4scnc34)cc2)CC1 |
| < 100 | < 100 |  | O=C(c1ccc(NS(=O)(=O)c2cccc3scnc23)cc1)N1CCC(O)(Cc2cn[nH]c2)CC1 |
| < 100 | < 100 |  | O=C(c1ccc(NS(=O)(=O)c2cc(F)cc3cccnc23)cc1)N1CCC(O)(c2ccccc2Cl)CC1 |
| < 100 | < 100 |  | Cc1cccc(CC2(O)CCN(C(=O)c3ccc(NS(=O)(=O)c4cccc5cccnc45)cc3)CC2)n1 |
| < 100 | < 100 |  | O=C(c1ccc(NS(=O)(=O)c2cccc3scnc23)cc1)N1CCC(O)(c2scnc2Cl)CC1 |
|  | < 100 | < 100 | CS(=O)(=O)c1cccc(C2(O)CCN(C(=O)c3ccc(NS(=O)(=O)c4cccc5cccnc45)cc3)CC2)c1 |
| < 100 | < 100 |  | O=C(c1ccc(NS(=O)(=O)c2cccc3scnc23)cc1)N1CCC(O)(CC2CC2(F)F)CC1 (stereo not drawn) |
| < 100 |  |  | CC(F)(F)CCC1(O)CCN(C(=O)c2ccc(NS(=O)(=O)c3cccc4nccnc34)cc2OC(F)F)CC1 |
|  |  | < 100 | CC(C)CC1(OC(=O)OCOP(=O)(O)O)CCN(C(=O)c2ccc(NS(=O)(=O)c3cccc4nccnc34)cc2)CC1 |
| < 100 | < 100 |  | Cc1nc(C(=O)N2CCC(O)(c3ccccc3Cl)CC2)ccc1NS(=O)(=O)c1cccc2cccnc12 |
| < 100 |  |  | Cn1nccc1CC1(O)CCN(C(=O)c2ccc(NS(=O)(=O)c3cccc4scnc34)cc2)CC1 |

| AC50 (Pyruvate kinase PKLR [1]) [nM] | AC50 (Pyruvate kinase PKLR [2]) [nM] | AC50 (Pyruvate kinase PKLR [3]) [nM] | SMILES |
| --- | --- | --- | --- |
| < 100 | < 100 |  | O=C(c1ccc(NS(=O)(=O)c2cccc3ccc(F)nc23)cc1)N1CCC(O)(c2ccccc2Cl)CC1 |
|  | < 100 |  | O=C(c1ccc(NS(=O)(=O)c2cccc3scnc23)cc1)N1CCC(O)(Cc2nc(Cl)cs2)CC1 |
| < 100 | < 100 |  | O=C(c1ccc(NS(=O)(=O)c2cccc3nccnc23)cc1)N1CCC(O)(Cc2cn[nH]c2)CC1 |
| > 10000 | > 10000 |  | CC(C)CC1(O)CCN(C(=O)c2ccc(NS(=O)(=O)c3cccc4snnc34)cc2)CC1 |
| < 100 | < 100 |  | Cc1cc(C2(O)CCN(C(=O)c3ccc(NS(=O)(=O)c4cccc5scnc45)cc3)CC2)sn1 |
| < 100 | < 100 |  | Cc1nc(C2(O)CCN(C(=O)c3ccc(NS(=O)(=O)c4cccc5cccnc45)cc3)CC2)ccc1F |
|  | < 100 |  | CC(F)(F)CCC1(O)CCN(C(=O)c2ccc(NS(=O)(=O)c3cc(F)cc4sc(N)nc34)cc2F)CC1 |
|  | < 100 |  | O=C(c1ccc(NS(=O)(=O)c2cccc3cccnc23)cc1)N1CCC(O)(/C=C/C(F)F)CC1 |
| < 100 | < 100 |  | O=C(c1ccc(NS(=O)(=O)c2cccc3nccnc23)cc1)N1CCC(O)(CC2CC2)CC1 |
| < 100 | < 100 |  | Cc1noc(C)c1CC1(O)CCN(C(=O)c2ccc(NS(=O)(=O)c3cccc4scnc34)cc2)CC1 |
| > 10000 | > 10000 |  | O=C(c1ccc(NS(=O)(=O)c2cccc3cnccc23)cc1)N1CCC(O)(c2ccccc2)CC1 |
| < 100 | < 100 |  | CC(F)(F)CCC1(O)CCN(C(=O)c2ccc(NS(=O)(=O)c3cccc4scnc34)cc2)CC1 |
| < 100 |  |  | Cn1cc(CC2(O)CCN(C(=O)c3ccc(NS(=O)(=O)c4cccc5scnc45)cc3)CC2)cn1 |
|  | < 100 | < 100 | Nc1c(O)cccc1S(=O)(=O)Nc1ccc(C(=O)N2CCC(O)(c3ccccc3Cl)CC2)cc1 |
| < 100 | < 100 |  | O=C(c1ccc(NS(=O)(=O)c2cccc3cccnc23)cc1)N1CCC(O)(c2ncccc2F)CC1 |
| < 100 | < 100 |  | CC(C)CC1(O)CCN(C(=O)c2ccc(NS(=O)(=O)c3cc(F)cc4scnc34)cc2)CC1 |
| < 100 | < 100 |  | O=C(c1ccc(NS(=O)(=O)c2ccc(F)c3cccnc23)cc1)N1CCC(O)(CC2CCC2)CC1 |
|  | < 100 |  | O=C(c1ccc(NS(=O)(=O)c2cccc3ocnc23)cc1)N1CCC(O)(c2ccccc2Cl)CC1 |
|  |  | < 100 | O=C(c1ccc(NS(=O)(=O)c2cccc3nccnc23)cc1)N1CCC(O)(c2ccccc2)CC1 |
| > 10000 | > 10000 |  | O=C(c1ccc(NS(=O)(=O)c2ccc(C(F)(F)F)cc2)cc1)N1CCC(O)(Cc2ccccc2)CC1 |
| < 100 | < 100 |  | O=C(c1ccc(NS(=O)(=O)c2cc(F)cc3cccnc23)cc1)N1CCC(O)(c2ccccc2)CC1 |
| > 10000 | > 10000 |  | CC(C)CC1(OP(=O)(O)O)CCN(C(=O)c2ccc(NS(=O)(=O)c3cccc4scnc34)cc2)CC1 |
| < 100 | < 100 |  | O=C(c1ccc(NS(=O)(=O)c2cccc3nccnc23)cc1)N1CCC(O)(CCC(F)(F)F)CC1 |
| < 100 | < 100 | < 100 | O=C(c1ccc(NS(=O)(=O)c2cccc3c2OCCO3)cc1)N1CCC(O)(Cc2ccccc2)CC1 |

| AC50 (Pyruvate kinase PKLR [1]) [nM] | AC50 (Pyruvate kinase PKLR [2]) [nM] | AC50 (Pyruvate kinase PKLR [3]) [nM] | SMILES |
| --- | --- | --- | --- |
| < 100 | < 100 |  | O=C(c1ccc(NS(=O)(=O)c2cccc3ccoc23)cc1)N1CCC(O)(c2ccccc2Cl)CC1 |
| < 100 | < 100 |  | Nc1nc2c(S(=O)(=O)Nc3ccc(C(=O)N4CCC(O)(CCC(F)(F)F)CC4)cc3)cccc2s1 |
| < 100 | < 100 |  | O=C(c1ccc(NS(=O)(=O)c2cccc3scnc23)cc1)N1CCC(O)(CCC(F)=C(F)F)CC1 |
| < 100 | < 100 |  | CC(C)CC1(CO)CCN(C(=O)c2ccc(NS(=O)(=O)c3cccc4nccnc34)cc2)CC1 |
|  | < 100 |  | COCCC1(O)CCN(C(=O)c2ccc(NS(=O)(=O)c3cccc4cccnc34)cc2)CC1 |
| < 100 | < 100 |  | CC(C)CC1(CO)CCN(C(=O)c2ccc(NS(=O)(=O)c3cccc4scnc34)cc2)CC1 |
| < 100 | < 100 |  | Cc1ccc(C2(O)CCN(C(=O)c3ccc(NS(=O)(=O)c4cccc5cccnc45)cc3)CC2)c(Cl)c1 |
| < 100 | < 100 |  | O=C(c1ccc(NS(=O)(=O)c2cccc3cccnc23)c2ccccc12)N1CCC(O)(c2ccccc2Cl)CC1 |
|  |  | < 100 | CC(C)CC1(OC(=O)OCOP(=O)(O)O)CCN(C(=O)c2ccc(NS(=O)(=O)c3cccc4scnc34)cc2)CC1 |
| > 10000 | > 10000 |  | CC(C)(O)CCCC1(O)CCN(C(=O)c2ccc(NS(=O)(=O)c3cccc4nccnc34)cc2)CC1 |
| < 100 | < 100 |  | O=C(c1ccc(NS(=O)(=O)c2cccc3scnc23)cc1)N1CCC(O)(CC2CC2)CC1 |
|  |  | < 100 | O=C(c1ccc(NS(=O)(=O)c2cccc3nccnc23)cc1)N1CCC(O)(c2sncc2Cl)CC1 |
| < 100 |  |  | CCOCC1(O)CCN(C(=O)c2ccc(NS(=O)(=O)c3cccc4cccnc34)cc2)CC1 |
| < 100 | < 100 |  | COc1ccccc1C1(O)CCN(C(=O)c2ccc(NS(=O)(=O)c3cccc4cccnc34)cc2)CC1 |
|  | > 10000 |  | O=C(c1ncc(NS(=O)(=O)c2cccc3cccnc23)cn1)N1CCC(O)(c2ccccc2)CC1 |
|  | > 10000 |  | N#Cc1cccc(S(=O)(=O)Nc2ccc(C(=O)N3CCC(O)(Cc4ccccc4)CC3)cc2)c1 |
| < 100 | < 100 |  | Cc1n[nH]c(C)c1CC1(O)CCN(C(=O)c2ccc(NS(=O)(=O)c3cccc4nccnc34)cc2)CC1 |
| < 100 | < 100 |  | O=C(c1ccc(NS(=O)(=O)c2cccc3cccnc23)cc1)N1CCC(O)(Cc2cccc(C(F)(F)F)c2)CC1 |
| < 100 | < 100 |  | O=C(c1ccc(NS(=O)(=O)c2cccc3cccnc23)cc1)N1CCC(O)(Cc2ccccn2)CC1 |
| < 100 | < 100 |  | Cc1cc(CC2(O)CCN(C(=O)c3ccc(NS(=O)(=O)c4cccc5nccnc45)cc3)CC2)sn1 |
| > 10000 |  |  | O=C(c1ccc(NS(=O)(=O)c2cccnc2)cc1)N1CCC(O)(Cc2ccccc2)CC1 |
| < 100 | < 100 |  | O=C(c1ccc(NS(=O)(=O)c2ccc(F)c3cccnc23)cc1)N1CCC(O)(Cc2ccccc2C(F)(F)F)CC1 |
| < 100 | < 100 |  | Cc1cc(C2(O)CCN(C(=O)c3ccc(NS(=O)(=O)c4cccc5nccnc45)cc3)CC2)sn1 |
| < 100 | < 100 |  | O=C(c1ccc(NS(=O)(=O)c2cccc3ccccc23)cc1)N1CCC(O)(c2ccccc2Cl)CC1 |
